Source: patent publication US10392622B2, “Compositions and methods for self-regulated inducible gene expression” (The Trustees of the University of Pennsylvania, priority 2014, dated 2019)
“Also recorded” adds a separate entry of the source.

Legend:
[1] = tested on: cells; details: CD-1, mouse
Method: Bioavailability of IPTG: Three CD-1 adult mice were gavaged with 25 μL of 1M IPTG per 10 g of body weight twice a day for 3 days. Animals were then sacrificed and major organs were harvested, mechanically homogenized, and steady state concentrations of IPTG in liver, kidney, skeletal muscle, and retina were determined using a beta-galacosidase assay^24. […] IPTG concentrations were tracked in various mouse tissues after a single 3-day IPTG gavage induction cycle. Data points represent mean+/−SD, n=3.

[2] = tested on: ARPE-19 cells; test: Luciferase regulation assay in transfected ARPE-19 cells with and without IPTG; format: cell-based, human
Method: All gene regulation assays start by transiently transfecting the cell line of choice with the appropriate plasmid. Media is supplemented with effector of varying concentration in wells (IPTG for lacI repressor experiments and doxycycline for tet repressor experiments) and specific experimental conditions are typically grown side by side in triplicate. Experimental measurement times varied depending upon cell confluence but occurred 24 to 72 hours after transfection.
Cells were lysed with Reporter Lysis Buffer (Promega) and 5 μL of whole cell lysate was added to 45 μL of luciferase assay buffer (Promega) containing luciferin in 384 well optical bottom plates (Corning). Plates were immediately loaded into the Tecan M1000 and luciferase signal was measured for each well over time. Peak luciferase signal values were used for quantification. […]
The plasmid containing the cassette controlling luciferase was transfected into human retinal pigment epithelium (ARPE-19) cells and grown with and without 2.5 mM IPTG. We measured approximately 20% basal expression with a 3.5-fold induction (p<0.05) (FIG. 1D). […]
Point mutations introduced in the repressor can decrease leakiness, increase dynamic range, or change/alter the affinity for effector molecules in bacterial cells. […] These point mutations were introduced into the repressor and induction measured in ARPE-19 cells. […]

Row | Molecule | gavage concentration of IPTG, fold less than concentrations toxic to cells [1] [fold] | steady state tissue concentrations of IPTG, fold less than concentrations toxic to cells ([1]; 3 days) [fold] | leakiness, dynamic range and maximal expression phenotype (in words) [2]
1 | CC(C)SC1OC(CO)C(O)C(O)C1O [IPTG, isopropyl β-D-1-thiogalactopyranoside] | 50 | 500 | 
2 | Q18M: lacI repressor point mutant in the DNA binding domain, residue 18 Q to M (protein, listed as Escherichia coli) MKPVTLYDVAEYAGVSYMTVSRVVNQASHVSAKTREKVEAAMAELNYIPNRVAQQLAGKQSLLIGVATSSLALHAPSQIVAAIKSRADQLGASVVVSMVERSGVEACKAAVHNLLAQRVSGLIINYPLDDQDAIAVEAACTNVPALFLDVSDQTPINSIIFSHEDGTRLGVEHLVALGHQQIALLAGPLSSVSARLRLAGWHKYLTRNQIQPIAEREGDWSAMSGFQQTMQMLNEGIVPTAMLVANDQMALGAMRAITESGLRVGADISVVGYDDTEDSSCYIPPLTTIKQDFRLLGQTSVDRLLQLSQGQAVKGNQLLPVSLVKRKTTLAPNTQTASPRALADSLMQLARQVSRLESGQ |  |  | deceased leakiness at the expense of maximal expression; also recorded: decreased leakiness as well as the commensurate decreased dynamic range
3 | F161W: lacI repressor effector pocket point mutant, residue 161 F to W (protein, UniProt P03023 1-360, looked up, variant F161W) Lactose operon repressor: MKPVTLYDVAEYAGVSYQTVSRVVNQASHVSAKTREKVEAAMAELNYIPNRVAQQLAGKQSLLIGVATSSLALHAPSQIVAAIKSRADQLGASVVVSMVERSGVEACKAAVHNLLAQRVSGLIINYPLDDQDAIAVEAACTNVPALFLDVSDQTPINSIIWSHEDGTRLGVEHLVALGHQQIALLAGPLSSVSARLRLAGWHKYLTRNQIQPIAEREGDWSAMSGFQQTMQMLNEGIVPTAMLVANDQMALGAMRAITESGLRVGADISVVGYDDTEDSSCYIPPLTTIKQDFRLLGQTSVDRLLQLSQGQAVKGNQLLPVSLVKRKTTLAPNTQTASPRALADSLMQLARQVSRLESGQ |  |  | decreased leakiness and increased dynamic range
